{"source": "patent US20230193348A1", "about": "“DPP3 FOR THERAPY GUIDANCE, MONITORING AND STRATIFICATION OF NT-ADM ANTIBODIES IN PATIENTS WITH SHOCK” (4TEEN4 PHARMACEUTICALS GMBH, priority 2020, published 2023)", "key": {"[1]": {"details": "phase I study; cited from earlier work"}, "[2]": {"system": "patients with septic shock and elevated adrenomedullin", "test": "AdrenOSS-2 phase II clinical trial, 14-day mortality", "format": "in vivo, human", "details": "vs placebo", "source_text": "AdrenOSS-2 is a double-blind, placebo-controlled, randomized, multicenter, proof of concept and dose-finding phase II clinical trial to investigate the safety, tolerability and efficacy of the N-terminal ADM antibody named Adrecizumab in patients with septic shock and elevated adrenomedullin (Geven et al. BMJ Open 2019;9:e024475). In total, 301 patients with septic shock and bio-ADM concentration > 70 pg/mL were randomized (2:1:1) to treatment with a single intravenous infusion over approximately 1 hour with either placebo (n=152), adrecizumab 2 ng/kg (n=72) or adrecizumab 4 ng/kg (n=77). All-cause mortality within 28 (90) days after inclusion was 25.8% (34.8%). Mean age was 68.4 years and 61% were male. For the per protocol analysis, n=294 patients remained eligible, and 14-day all-cause mortality rate was 18.5%.\nIn patients treated with Adrecizumab (both doses combined, per protocol population), a trend to lower short term mortality (14 days post admission) was observed compared to placebo (Hazard ratio (HR) 0.701 [0.408-1.21], p=0.100) (FIG. 8)."}}}
{"substance": "Adrecizumab: humanized version of an N-terminal anti-ADM antibody; heavy chain SEQ ID NO: 32, light chain SEQ ID NO: 33", "values": [{"measurement": "safety and tolerability, adverse events", "setting": "[1]", "result": "no serious adverse events were observed"}, {"measurement": "HR 14-day mortality", "setting": "[2]; patients with DPP3 <40", "result": 0.385}, {"measurement": "HR 14-day mortality", "setting": "[2]; patients with DPP3 <50 (ng/mL on admission)", "result": 0.426}, {"measurement": "HR 14-day mortality", "setting": "[2]; patients with DPP3 <60", "result": 0.449}, {"measurement": "HR 14-day mortality", "setting": "[2]; patients with DPP3 <70", "result": 0.546}, {"measurement": "HR 14-day mortality", "setting": "[2]; patients with DPP3 >40", "result": 1.35}, {"measurement": "HR 14-day mortality", "setting": "[2]; patients with DPP3 >50 (ng/mL on admission)", "result": 1.69}, {"measurement": "HR 14-day mortality", "setting": "[2]; patients with DPP3 >60", "result": 1.62}, {"measurement": "HR 14-day mortality", "setting": "[2]; patients with DPP3 >70", "result": 1.24}]}
